Source: US20240383908A1, “SYNTHESIS AND APPLICATION OF PHOSPHATASE DEGRADER” (HINOVA PHARMACEUTICALS INC., priority 2021, published 2024)
pIC50: −log10 of the molar value. Where a name gives a salt, the structure may show the parent alone.

How the values were obtained:
Format in all cases: cell-based
SHP2 protein [1] = biological target: T1, SHP2 protein (Homo sapiens, UniProt Q06124); test: Degradation activity on SHP2 protein in MV-411 cells (Western blot, DC50); design: endogenous in cells; settings: MV411 cells, 24 hours, read-out: Degradation activity for differenct cell lines MV411 (DC50)
T1 sequence (Q06124 1-593): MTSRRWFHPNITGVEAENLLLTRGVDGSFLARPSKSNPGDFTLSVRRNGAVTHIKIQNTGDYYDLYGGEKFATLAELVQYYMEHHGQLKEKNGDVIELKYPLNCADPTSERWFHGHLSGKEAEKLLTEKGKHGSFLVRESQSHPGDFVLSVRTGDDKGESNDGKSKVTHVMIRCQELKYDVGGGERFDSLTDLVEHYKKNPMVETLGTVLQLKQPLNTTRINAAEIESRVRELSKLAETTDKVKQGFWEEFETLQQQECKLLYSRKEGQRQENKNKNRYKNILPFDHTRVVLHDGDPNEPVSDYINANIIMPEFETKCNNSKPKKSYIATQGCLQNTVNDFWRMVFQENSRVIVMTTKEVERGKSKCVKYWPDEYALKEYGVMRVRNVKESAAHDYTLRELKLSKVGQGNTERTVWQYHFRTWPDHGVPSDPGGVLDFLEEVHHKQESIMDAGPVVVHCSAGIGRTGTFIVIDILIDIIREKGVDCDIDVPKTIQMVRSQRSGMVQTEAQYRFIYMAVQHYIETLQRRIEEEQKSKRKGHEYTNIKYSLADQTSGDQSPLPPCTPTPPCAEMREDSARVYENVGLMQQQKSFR
Outline: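 MV-411 cells (1×10^6 cells/well, IMDM + 10% FBS) were treated 24 h with compound at 0.1-100 nM final, 0.1% DMSO, duplicates. SHP2 measured by Western blot against GAPDH, band density normalised to DMSO control; DC50 from dose-response fit.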

NCI-H358 = test: Inhibition of cell proliferation, NCI-H358 (CCK-8); settings: Homo sapiens, NCI-H358 cells, read-out: Inhibition activity on the proliferation of different cell lines NCI-H358 (IC50)
Protocol: (§1) (1) MV-411 cells were cultured in the cell culture medium, and then well-growing cells were selected and inoculated in a 96-well plate at 80 μL/well, with 2×10^4 cells/well. The plate was incubated overnight in a 5% CO2 cell incubator at 37° C.
(§2) (2) 10 mM storage solution of each drug was prepared using dimethylsulfoxide (DMSO). The stock solution was diluted in a ratio of 1:3 with DMSO before use, and then the solution was serially diluted in a ratio of 1:3, to obtain 9 gradient concentrations. Each concentration was further diluted with the medium in a ratio of 1:200 (to ensure that the DMSO concentration in the culture system was 0.1%). Two wells were set for each concentration. 20 μL of each compound solution was added to the cell culture well (with a final concentration of 10 μM, 3.3 μM, 1.1 μM . . . ). The plate was gently shaken and mixed. Additionally, 3 negative control wells (only containing cells) and 3 blank control wells (only containing the medium) were included (6 wells were each added with 20 μL of DMSO diluted with the medium in a ratio of 1:200).
(§3) (1) After 5 days of cultivation, 10 μL of CCK-8 was added to each well, and then the plate was further cultured for 3 h at 37° C. in a 5% CO2 cell incubator.
(§4) (2) The absorbance (OD value) was measured at 450 nm with a multifunctional microplate reader. (3) The data were analyzed using the Dose-response-inhibition equation in GraphPad Prism8 software to obtain the IC50 value.
(§5) Using a similar method, the IC50 value (nM) for the inhibitory activity of the compound according to the present invention against different cell lines was obtained, and the results are shown in Table 3 (++++: IC50>5 μM; +++: 1 μM<IC50<5 μM; ++: IC50<1 μM).

MIA Paca-2 = test: Inhibition of cell proliferation, MIA Paca-2 (CCK-8); settings: Homo sapiens, MIA Paca-2 cells, read-out: Inhibition activity on the proliferation of different cell lines MIA Paca-2 (IC50)
Protocol: as §1, §2, §3, §4, §5

SHP2 protein [2] = biological target: T1, SHP2 protein; test: Degradation activity on SHP2 protein in NCI-H358 cells (Western blot, DC50); design: endogenous in cells; settings: read-out: Degradation activity for differenct cell lines NCI-H358 (DC50)
Outline: (§6)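 Cells were treated 24 h at 37 °C with compound (0.1–100 nM final, 0.1% DMSO). SHP2 was measured by Western blot with GAPDH as loading control, densitometry normalized to DMSO (100%). DC50, the concentration giving 50% degradation, came from a dose-response fit.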

SHP2 protein [3] = biological target: T1, SHP2 protein; test: Degradation activity on SHP2 protein in MIA Paca-2 cells (Western blot, DC50); design: endogenous in cells; host or cells: MIA Paca-2 cells; settings: read-out: Degradation activity for differenct cell lines MIA Paca-2 (DC50)
Outline: as §6

MV-411 cell line = test: Inhibition of cell proliferation, MV-411 (CCK-8); settings: Homo sapiens, MV4-11, 120 h, MV411 cells, 5 days, read-out: Inhibition activity on the proliferation of different cell lines MV411 (IC50)
Protocol: • MV-411 cell line (COBIER, CBP-60522) • FBS (GEMINI, Cat. No. 900-108) • 0.01M PBS (Biosharp, Cat. No. 162262) • IMDM (Hyclone, Cat. No. SH30228.01) • Penicillin-Streptomycin (Gibco, Cat. No. 15140122) • DMSO (Sigma, Cat. No. D5879) • Cell counting kit-8 (Signalway Antibody, Cat. No. CP002) • Centrifuge Tube, 15 ml (Excell Bio, Cat. No. CS015-0001) • Cell Culture Dish, (WHB, Cat. No. CS016-0128) • 96-well cell culture cluster (Corning, Cat. No. 3599)
• (1) Cell culture medium: IMDM medium+10% FBS+1% Pen Strep; • (2) PBS buffer: PBS powder was dissolved in 2 L of ultrapure water and sterilized;
as §1, §2, §3, §4

KYSE 520 = test: Inhibition of cell proliferation, KYSE 520 (CCK-8); settings: Homo sapiens, KYSE 520 cells, read-out: Inhibition activity on the proliferation of different cell lines KYSE 520 (IC50)
Protocol: as §1, §2, §3, §4, §5

CC1(N)CCN(c2cnc(Sc3cccc(NC(=O)CCCCCCCO[C@H]4CCN(Cc5ccc(COc6cccc7c6CN(C6CCC(=O)NC6=O)C7=O)cc5)C4)c3)cn2)CC1 (some centres unmarked) [Compound 96]
DC50 (SHP2 protein [1]): < 100 nM | pIC50 (NCI-H358): > 6.00 | pIC50 (MIA Paca-2): > 6.00

CC1(N)CCN(c2cnc(Sc3cccc(NC(=O)CCCCCCCN4CC5CN(c6ccc(C(=O)NCc7ccc8c(c7)CN(C7CCC(=O)NC7=O)C8=O)nn6)CC5C4)c3)cn2)CC1 (centres unmarked) [Compound 100]
DC50 (SHP2 protein [1]): < 100 nM | DC50 (SHP2 protein [2]): < 100 nM | DC50 (SHP2 protein [3]): < 100 nM

CC1(N)CCN(c2cnc(Sc3cccc(NC(=O)CCCCCCN4CC5(CCN(c6ccc(C(=O)NCc7ccc8c(c7)CN(C7CCC(=O)NC7=O)C8=O)nn6)C5)C4)c3)cn2)CC1 (centres unmarked) [Compound 110]
DC50 (SHP2 protein [1]): < 100 nM | DC50 (SHP2 protein [2]): 100 to 1000 nM | pIC50 (NCI-H358): < 5.30 | pIC50 (MIA Paca-2): < 5.30 | DC50 (SHP2 protein [3]): 100 to 1000 nM

O=C1CCC(N2Cc3cc(CNC(=O)c4ccc(N5CCC6(CN(CCC(=O)Nc7cccc(Sc8cnc(N9CCC%10(CCNC%10)CC9)cn8)c7)C6)C5)nn4)ccc3C2=O)C(=O)N1 (centres unmarked) [Compound 111]
DC50 (SHP2 protein [1]): > 1000 nM | pIC50 (MV-411 cell line): > 6.00 | pIC50 (NCI-H358): 5.30 to 6.00 | pIC50 (MIA Paca-2): 5.30 to 6.00

CC1CN(c2ccc(C(=O)NCc3ccc4c(c3)CN(C3CCC(=O)NC3=O)C4=O)nn2)CC(C)N1CCCCCCCCC(=O)Nc1cccc(Sc2cnc(N3CCC(C)(N)CC3)cn2)c1 (centres unmarked) [Compound 138]
DC50 (SHP2 protein [1]): < 100 nM | DC50 (SHP2 protein [2]): < 100 nM | pIC50 (MV-411 cell line): > 6.00 | DC50 (SHP2 protein [3]): < 100 nM

CN(Cc1ccc2c(c1)CN(C1CCC(=O)NC1=O)C2=O)C(=O)c1ccc(N2CCN(CCCCCCCCC(=O)Nc3cccc(Sc4cnc(N5CCC(C)(N)CC5)cn4)c3)C(C(F)(F)F)C2)nn1 (centres unmarked) [Compound 175]
DC50 (SHP2 protein [1]): < 100 nM | pIC50 (MIA Paca-2): 5.30 to 6.00

CC1(N)CCN(c2cnc(Sc3cccc(NC(=O)CCCCCOC4CC5(CCN(c6ccc(C(=O)NCc7ccc8c(c7)CN(C7CCC(=O)NC7=O)C8=O)cc6F)CC5)C4)c3)cn2)CC1 (centres unmarked) [Compound 176]
DC50 (SHP2 protein [1]): < 100 nM | DC50 (SHP2 protein [2]): 100 to 1000 nM | DC50 (SHP2 protein [3]): < 100 nM

CC1(N)CCN(c2cnc(Sc3cccc(NC(=O)CCCCCCN4CC5(CCN(c6ncc(C(=O)NCc7ccc8c(c7)CN(C7CCC(=O)NC7=O)C8=O)cc6Cl)C5)C4)c3)cn2)CC1 (centres unmarked) [Compound 181]
DC50 (SHP2 protein [1]): < 100 nM | DC50 (SHP2 protein [2]): < 100 nM | pIC50 (MIA Paca-2): 5.30 to 6.00 | DC50 (SHP2 protein [3]): < 100 nM

CC1(N)CCN(c2cnc(Sc3cccc(NC(=O)CCCCCCN4CC5(CCN(c6ccc(C(=O)NCc7ccc8c(c7)CN(C7CCC(=O)NC7=O)C8=O)nc6)C5)C4)c3)cn2)CC1 (centres unmarked) [Compound 186]
DC50 (SHP2 protein [1]): < 100 nM | DC50 (SHP2 protein [2]): < 100 nM | DC50 (SHP2 protein [3]): < 100 nM

CC1(N)CCN(c2cnc(Sc3cccc(NC(=O)CCCCCCCCN4CC=C(c5ccc(C(=O)NCc6ccc7c(c6)CN(C6CCC(=O)NC6=O)C7=O)nn5)CC4)c3)cn2)CC1 (centres unmarked) [Compound 188]
DC50 (SHP2 protein [1]): < 100 nM | DC50 (SHP2 protein [2]): < 100 nM | DC50 (SHP2 protein [3]): < 100 nM

CC1(N)CCN(c2cnc(Sc3cccc(NC(=O)CCCCCCN4CC5(CCN(c6ccc(C(=O)NCc7ccc8c(c7)CN(C7CCC(=O)NC7=O)C8=O)nc6Cl)C5)C4)c3)cn2)CC1 (centres unmarked) [Compound 200]
DC50 (SHP2 protein [1]): < 100 nM | DC50 (SHP2 protein [2]): < 100 nM | DC50 (SHP2 protein [3]): < 100 nM

CC1(N)CCN(c2cnc(Sc3cccc(NC(=O)CCCCCCN4CC5(CC=C(c6ccc(C(=O)NCc7ccc8c(c7)CN(C7CCC(=O)NC7=O)C8=O)nn6)CC5)C4)c3)cn2)CC1 (centres unmarked) [Compound 207]
DC50 (SHP2 protein [1]): < 100 nM | DC50 (SHP2 protein [2]): < 100 nM | DC50 (SHP2 protein [3]): < 100 nM

CC1(N)CCN(c2cnc(Sc3cccc(NC(=O)c4ccc(N5CCC(N6CC=C(c7cnc(C(=O)NCc8ccc9c(c8)CN(C8CCC(=O)NC8=O)C9=O)c(F)c7)CC6)CC5)c(F)c4)c3)cn2)CC1 (centres unmarked) [Compound 414]
pIC50 (MV-411 cell line): < 5.30 | DC50 (SHP2 protein [3]): < 100 nM | pIC50 (KYSE 520): 5.30 to 6.00

Cc1cc(N2CCC(N3CC=C(c4ccc(C(=O)NCc5ccc6c(c5)CN(C5CCC(=O)NC5=O)C6=O)nc4)CC3)CC2)ccc1C(=O)Nc1cccc(Sc2cnc(N3CCC(C)(N)CC3)cn2)c1 (centres unmarked) [Compound 421]
DC50 (SHP2 protein [2]): < 100 nM | pIC50 (MV-411 cell line): > 6.00 | DC50 (SHP2 protein [3]): < 100 nM | pIC50 (KYSE 520): 5.30 to 6.00

C[C@@H]1OCC2(CCN(c3cnc(Sc4cccc(NC(=O)c5ccc(N6CCC(N7CCN(c8ccc(C(=O)NCc9ccc%10c(c9)CN(C9CCC(=O)NC9=O)C%10=O)c(F)c8)CC7)CC6)cc5)c4)cn3)CC2)[C@@H]1N (some centres unmarked) [Compound 500]
pIC50 (MV-411 cell line): > 6.00 | DC50 (SHP2 protein [3]): > 1000 nM | pIC50 (KYSE 520): 5.30 to 6.00

C[C@@H]1OCC2(CCN(c3cnc(Sc4cccc(NC(=O)c5ccc(N6CCC(N7CCN(c8ccc(C(=O)NCc9ccc%10c(c9)CN(C9CCC(=O)NC9=O)C%10=O)cc8F)CC7)CC6)cc5)c4)cn3)CC2)[C@@H]1N (some centres unmarked) [Compound 514]
pIC50 (MV-411 cell line): > 6.00 | DC50 (SHP2 protein [3]): > 1000 nM | pIC50 (KYSE 520): 5.30 to 6.00

C[C@@H]1OCC2(CCN(c3cnc(Sc4cccc(NC(=O)c5ccc(N6CCC(N7CC=C(c8ccc(C(=O)NCc9ccc%10c(c9)CN(C9CCC(=O)NC9=O)C%10=O)nn8)CC7)CC6)c(F)c5)c4)cn3)CC2)[C@@H]1N (stereo partly drawn) [Compound 519, N-{[2-(2,6-oxohexahydropyridine-3-yl)-1-oxo-2,3-dihydro-1H-isoindol-5-yl]methyl}-6-(1-{1-[2-fluoro-4-({[3-({5-[(3S,4S)-4-amino-3-methyl-8-aza-2-oxaspiro[4.5]decan-8-yl]pyrazin-2-yl}thio)phenyl]amino}carbonyl)phenyl]hexahydropyridine-4-yl}-1,2,3,6-tetrahydropyridin-4-yl)-1,2-diazacyclohexane-3-formamide hydrochloride]
pIC50 (MV-411 cell line): > 6.00 | DC50 (SHP2 protein [3]): < 100 nM | pIC50 (KYSE 520): 5.30 to 6.00
